Source: PMC12040169 (PLOS Biology, 2025)

Assay: in vitro
Conditions: human, hela cells, % viability

Row | SMILES | viability at 28.5 h, 10 µM [%]
1 | COc1ccc(CC(=O)N2CCC(C3OCc4cc(-c5ccc(C(=O)N(C)C)cc5)ccc4O3)CC2)cc1 (stereo not shown) [CBK149759] | 88.2
2 | COc1ccc(Cl)cc1NC(=O)CCN1CCN(C)CC1 [CBK278177C] | 91
3 | CC(=O)c1cccc(-c2nc(CC3CCN(C)CC3)nn2CCO)c1 [CBK306645] | 98.3
4 | Cc1nn(C)c(C)c1CCC(=O)N1CCCCC1c1ncc(-c2cccc(F)c2)[nH]1 (stereo not shown) [CBK291150] | 89.9
5 | O=C(O)CC(NC(=O)OCc1ccccc1)c1ccccc1 (stereo not shown) [CBK265351] | 107
6 | Cc1nc(C2(O)CCCN(Cc3cccc(F)c3)CC2)sc1CCOc1ccccc1 (stereo not shown) [CBK286024] | 89.6
7 | Cc1cccc(NC(=O)CSCc2ccc(Cl)s2)n1 [CBK297895] | 90.4
8 | Cc1ccc2ccc(S(=O)(=O)NCc3cccnc3)cc2c1 [CBK262072] | 98.8
9 | O=S(=O)(c1ccccc1)n1cc2c3c(cccc31)CN(CCO)C2 [CBK156333T] | 106
10 | CCN1C(=O)CC2(C1=O)C(=O)N(Cc1nc(OC)cc(OC)n1)c1ccccc12 (stereo not shown) [CBK075510] | 75.8
11 | N#CCCCN1CCC(Oc2nccnc2OCc2cccc(OCc3ccccc3)c2)CC1 [CBK161572] | 97.5
12 | CN(C)c1ccc(Nc2cc(Cl)nc3ccnn23)cc1 [CBK037203] | 98.3
13 | O=C(Cc1ccsc1)N1CCC2(CCCNC2)C1 (stereo not shown) [CBK137153C] | 85.4
14 | c1csc(-c2cncc(NCCc3ccncc3)n2)c1 [CBK065797] | 105
15 | Cn1cc(-c2nc(C3CCCCCN3C(=O)c3cc(Cl)c[nH]3)no2)cn1 (stereo not shown) [CBK306396] | 86.4
16 | O=C(NC1CCN(Cc2c(F)cccc2Cl)CC1)c1cccs1 [CBK057035] | 100
17 | Cc1ccc(O)c(NC(=O)c2ccccc2-c2ccccc2C(=O)O)c1 [CBK266763] | 82.9
18 | CC(=O)N1CCCC[C@H]2[C@H]1C[C@@H](c1ccccc1)N2C(=O)CN1CCCCCC1 [CBK286120] | 117
19 | COc1cc(C(=O)Nc2nc3c(s2)CC(C)CC3)cc(OC)c1OC (stereo not shown) [CBK287299] | 107
20 | CN(C)Cc1ccc(C(=O)N2CCCC2(C)C(=O)N(C)C)cc1 (stereo not shown) [CBK281955] | 90
21 | CN1CCCC(NC(=O)C2CCN(Cc3ccc(F)cc3)CC2)C1 (stereo not shown) [CBK282516] | 119
22 | CN(C)CCOCc1ncccc1OCCOC1CCCCO1 (stereo not shown) [CBK045662] | 93.1

Row | SMILES | viability at 28.5 h, 10 µM [%]
23 | Oc1cccc(OCCOc2cccc(C(F)(F)F)n2)c1 [CBK115797] | 84.7
24 | O=C(CC1SC(NC2CCCCCC2)=NC1=O)NCc1c(F)cccc1Cl (stereo not shown) [CBK067656] | 89.7
25 | CCN(CC)C(=O)c1sc2ncccc2c1NS(=O)(=O)c1cc(Cl)sc1Cl [CBK050615] | 92.2
26 | COc1nc(N(C)C)nc(N2CC(=O)N(c3ccccc3)C2=N)n1 [CBK269079] | 87.6
27 | Cc1ccc(C(=O)O)cc1NC(=O)C(C)Oc1cccc(Cl)c1 (stereo not shown) [CBK268331] | 95.7
28 | O=C1NN=C(CSCCO)Oc2ccccc21 [CBK006771] | 88.5
29 | COc1cncc(-c2cncc(Nc3cc(OC)c(OC)c(OC)c3)n2)c1 [CBK065397] | 95.1
30 | COc1ccc(NC(=O)CN2CCN(c3ccccc3OC)CC2)c([N+](=O)[O-])c1 [CBK269188] | 94.7
31 | CC(=O)N(C)c1nc(-c2ccccc2)ccc1C(=O)NCc1ccco1 [CBK106334] | 99.3
32 | Cc1nccn1CC1CCCN(Cc2ccnc3ccccc23)C1 (stereo not shown) [CBK281966] | 84.7
33 | CS(=O)(=O)c1ccc(CN2CCOC[C@H]2c2nc(-c3ccc(F)cc3)c[nH]2)cc1 [CBK289295] | 89.4
34 | COc1ccc(O)c(-c2c(-c3ccc(C)cc3)n[nH]c2C)c1 [CBK287961] | 93.1
35 | COc1ccc(-c2ccc(OC)cc2C(=O)Nc2cccc(-n3cccn3)c2)cc1 [CBK285818] | 94.6
36 | COc1cc(/C=C2\C=C(c3ccc(-c4ccccc4)cc3)OC2=O)ccc1O [CBK265594] | 88.5
37 | CCOc1ccc(C(=O)C2=C(O)C(=O)N(CCN(C)C)C2c2ccc(N(C)C)cc2)c(C)c1 (stereo not shown) [CBK264603] | 110
38 | CC(C)[C@@H](CO)n1c(=O)[nH]c2ncc(-c3cccc4ccccc34)nc21 [CBK064961] | 98.6
39 | CC(C)c1nsc(NS(=O)(=O)c2cc(C(F)(F)F)cc(C(F)(F)F)c2)n1 [CBK051263] | 84.9
40 | O=C(O)CNC(=O)/C(=C/c1ccc(Br)cc1)NC(=O)c1ccc(Br)o1 [CBK262537] | 80.1
41 | O=c1[nH]cc(COCc2ccccc2)c(=O)[nH]1 [CBK261847] | 94
42 | CC1CCN(Cc2c(-c3cccnc3)[nH]c3cccnc23)CC1 [CBK281494] | 98.8
43 | Cc1c(C(=O)N2CCCC(c3cc4ncccc4[nH]3)C2)cnn1C (stereo not shown) [CBK283420] | 94.8
44 | Cc1cc2cc(C(=O)NCCCN3Cc4ccccc4C3)ccc2o1 [CBK282624] | 97.4

Row | SMILES | viability at 28.5 h, 10 µM [%]
45 | CCN(CC)C(=O)c1cccc(NC(=O)Cc2cn3ccsc3n2)c1 [CBK305353] | 85.6
46 | CC(C)N(C(=O)c1ccccc1-c1cnn2cccnc12)C(C)C [CBK307701] | 85.4
47 | CCOC(=O)C1CCN(Cc2cccs2)CC1 [CBK026999] | 86.3
48 | O=C(CCN1C(=O)c2cccc([N+](=O)[O-])c2C1=O)Nc1ccccc1Cl [CBK263121] | 91.6
49 | CC(C)(C)NC(=O)C[C@@H]1CCNC[C@@H]1Cc1cc(-c2ccccc2)on1 [CBK289145] | 86
50 | Cc1nn(C)c(C)c1CN(C)C(=O)c1cc(-c2ccc(F)cc2)on1 [CBK281587] | 82.2
51 | Cn1c(=O)c2c(nc(CN3CCOCC3)n2CC(=O)c2ccccc2)n(C)c1=O [CBK269195] | 93.2
52 | Cn1nc(C2CCN(C(=O)C3CCCCC3)CC2)c2cccnc21 [CBK284897] | 78.6
53 | Cc1ccc(C(=O)N2CC=C(c3c[nH]c4ncccc34)CC2)cn1 [CBK297889] | 103
54 | COc1ccc(C(=O)NNC(=O)c2cc(OC)cc(OC)c2)cc1 [CBK262616] | 96
55 | CCN(CC)C(=O)N1CCC(c2cccnc2)CC1 [CBK283535] | 99.9
56 | CCCN1CC(NS(=O)(=O)c2ccnn2CCC)CC1=O (stereo not shown) [CBK306598] | 92.9
57 | C[C@@H](c1ccccc1)n1c(=O)[nH]c2ncc(-c3ccc(C(=O)NC4CCCC4)cc3)nc21 [CBK064542] | 91.2
58 | COc1ccc2c(=O)c3c(oc2c1)C(=O)N(CCN(C)C)C3c1ccccn1 (stereo not shown) [CBK287781] | 98.3
59 | Cc1cc(NC(=O)C(C)N2CCN(S(=O)(=O)c3ccc(C4CCCCC4)cc3)CC2)on1 (stereo not shown) [CBK295639] | 101
60 | COc1cccc(-c2ccc(C(=O)NCCNC(C)=O)c(N3CCOCC3)n2)c1 [CBK076465] | 86.3
61 | CCCCN(CC(N)=O)C(=O)c1sc(COc2ccc(Cl)cc2)nc1C [CBK304539] | 101
62 | O=C(CSCc1nc(O)c2c3c(sc2n1)CCCC3)NC1CCCCC1 [CBK265684] | 83.5
63 | O=C(c1[nH]c2ccccc2c1NS(=O)(=O)Cc1ccccc1)N1CCOCC1 [CBK050067] | 99.5
64 | CCn1nc(-c2ccc(C)o2)nc1CC1NC(=O)c2ccccc21 (stereo not shown) [CBK306834] | 87
65 | COC(=O)c1c(NC(=O)C2C3C=CC(C3)C2C(=O)O)sc2c1CCCCC2 (stereo not shown) [CBK262653] | 80.2
66 | Cc1nc(C2CCN(C(=O)c3cccnc3)CC2)c2sccn12 [CBK282233] | 106

Row | SMILES | viability at 28.5 h, 10 µM [%]
67 | COc1ccc(CN2CCN(C(=O)NS(=O)(=O)c3ccc(C)cc3)CC2)cc1F [CBK297156] | 98.5
68 | CN(C)C(=O)CSc1nc2cc(Cl)ccc2c(=O)n1CC1CCCO1 (stereo not shown) [CBK305932] | 97.3
69 | Cc1nc(SCC(=O)NC(C)c2cccnc2)oc1C (stereo not shown) [CBK282198] | 93.2
70 | O=S(=O)(Nc1cccc(C(F)(F)F)c1)c1ccc(N2CCCNCC2)c2ccccc12 [CBK003929C] | 86.4
71 | CCCCNC(=O)c1c(N)n(-c2ccc(C(=O)O)cc2)c2nc3ccccc3nc12 [CBK300500] | 82.7
72 | O=C(CN1C(=O)c2ccccc2C1=O)Nc1ccccc1C(=O)N1CCN(c2ccccc2)CC1 [CBK269251] | 118
73 | O=C(Cn1cc(C(=O)NCc2ccccc2)ccc1=O)Nc1cc(F)ccc1N1CCCC1 [CBK285998] | 97.8
74 | CN(C)c1nc(Cl)c(C=Cc2cc(C(=O)O)c3ccccc3n2)s1 [CBK298272] | 110
75 | Cc1ccc2c(c1)CC(=O)NC21CCN(Cc2cccc(Br)c2)CC1 [CBK039392] | 94.7
76 | O=C(CSc1nnc(-c2ccncc2)n1-c1ccccc1)N/N=C/c1ccccc1O [CBK262788] | 85
77 | COc1ccc(C2(NC(=O)Cn3ccnc3)CCCCC2)cc1 [CBK283661] | 84
78 | CC12CCC(=O)N1CCCN2 (stereo not shown) [CBK067102T] | 94.5
79 | Oc1cc(C(F)(F)F)nc(Nc2ccccc2)n1 [CBK000517] | 89.3
80 | COC(=O)CSc1nnc(COc2ccc3c(c2)OCO3)n1-c1ccccc1 [CBK266139] | 107
81 | O=C(CSCC(=O)Nc1ccc2ccccc2c1)NCC1CCCO1 (stereo not shown) [CBK058183] | 89.6
82 | O=C(Nc1cc(-c2nc3ncccc3o2)ccc1Cl)c1ccc2c(c1)OCCO2 [CBK264105] | 95
83 | COc1ncc(-c2cnc3[nH]c(=O)n([C@H](C)c4ccccc4)c3n2)cn1 [CBK064401] | 85.3
84 | CSCCCNC(=O)N1CCCC(C(=O)O)C1 (stereo not shown) [CBK161343] | 92.1
85 | O=C(CC1Nc2ccccc2NC1=O)Nc1cccc(C(=O)O)c1 (stereo not shown) [CBK263155] | 102
86 | Nn1cnnc1SC1CCCCC1NS(=O)(=O)c1ccccc1 (stereo not shown) [CBK266361] | 95.7
87 | COc1ccc(C(C)C)cc1-c1cn2ccnc2c(N(C)CCN(C)C)n1 [CBK066368] | 94.8
88 | COc1ccc(-c2ncc(OCc3cccs3)nc2N)c(OC)c1 [CBK145088] | 84
